Source: patent US20240050477A1, “LIPID NANOPARTICLE” (NATIONAL UNIVERSITY CORPORATION HOKKAIDO UNIVERSITY, priority 2021, published 2024)

How the values were obtained:
[1] = pKa of lipid nanoparticle measured using TNS; type: physicochemical; conditions: apparent pKa of the pH-sensitive cationic lipid constituting a lipid nanoparticle
Experimental: The pKa of lipid nanoparticles was measured using […] (TNS). TNS (final concentration: 0.75 mM) and the lipid nanoparticles (final concentration: 30 mM) were first mixed in a buffer solution adjusted to each pH. The fluorescence intensity of the prepared mixed solution was measured using a microplate reader.

[2] = system: GAPDH mRNA in NK-92 cells; assay: GAPDH gene knockdown activity of siGAPDH-encapsulated lipid nanoparticle in NK-92 cells (RT-qPCR); type: cell-based, human; conditions: siGAPDH-encapsulated LNP, siRNA 10-90 nM, 24 hours after transfection
Experimental: A NK cell line (NK-92 or NK-92MI) was transfected with each lipid nanoparticle. The knockdown activity of the siGAPDH- or siSMAD3-encapsulated lipid nanoparticle was examined by RT-qPCR using RNA extracted from the cells 24 hours later as a template.
First, the NK cell line was recovered into a 50 mL tube and centrifuged (130×g, 4° C., 5 min). The supernatant was removed, and the cells were suspended in 10 mL of a culture medium (Opti-MEM), counted, and then resuspended into 4×10^6 cells/mL in a culture medium. […]
The cells were recovered into a 1.5 mL tube from each well and centrifuged (800×g, 4° C., 3 min). […] Then, absorbance was measured using micro-volume spectrophotometer “Nano drop” (manufactured by Thermo Fisher Scientific Inc.) to measure the concentration and purity of the RNA.
Reverse-transcription reaction was performed with the recovered RNA as a template using an oligo dT primer and a random primer (6 mars) in a kit for reverse-transcription reaction (“PrimeScript RT reagent kit”, manufactured by Takara Bio Inc.). Then, a GAPDH or SMAD3 mRNA level was measured by real-time PCR with the obtained cDNA as a template using relative quantification based on the ΔΔCt method and β-actin (ACTB) as an endogenous gene. […]

CCCCCCCC/C=C\CCCCCCCC(=O)OCCCCCCC(O)(CCCCCCOC(=O)CCCCCCC/C=C\CCCCCCCC)CCCCN(C)C [CL1H6]
pKa [1]: 8.2 | GAPDH gene knockdown activity ([GAPDH mRNA level]/[ACTB mRNA level]) [2]: high gene knockdown activity at a small content ratio

CCCCCCCC/C=C\CCCCCCCC(=O)OCCCCCCC(O)(CCCCCCOC(=O)CCCCCCC/C=C\CCCCCCCC)CCCCN(CCC)CCC [CL4H6]
pKa [1]: 6.35

CCCCCCCC/C=C\CCCCCCCC(=O)OCCCCCCC(O)(CCCCCCOC(=O)CCCCCCC/C=C\CCCCCCCC)CCCCOC(=O)C1CCN(C)CC1 [CL15H6]
pKa [1]: 7.3

CCCCC/C=C\C/C=C\CCCCCCCCC(O)(CCCCCCCC/C=C\C/C=C\CCCCC)CCCCN(C)C [YSK12-C4]
pKa [1]: 8.2
